# Test results as given in patent publication USRE37516E1, “Acetamide derivative having defined particle size” (Cephalon, Inc., priority 1994, dated 2002).
# Several values for one entry are separate records, joined by “and”; a condition that tells them apart may be missing. Equal entries are not always repeated.
# Key:
# [1] = Modafinil particle size analysis, Hiac/Royco Model 9064 sizing counter; assay type: physicochemical; details: for MODAFINIL PARTICLE DIAMETER MEAN / MODAFINIL PARTICLE DIAMETER MEDIAN / MODAFINIL PARTICLE DIAMETER MODE: Hiac/Royco Model 9064, n = 4, +/− standard deviation; for STD DEVIATION BETWEEN MEAN, MEDIAN, MODE: derived from mean, median and mode particle diameter
# Excerpt: Our particle size measurements were obtained using a Hiac/Royco Model 9064 sizing counter following manufacturer instructions (400 μm aperture; saturated water with modafinil solution; PDAS program). A summary of the results of these measurements is presented in Table 1, which includes the mean, median and mode particle sizes for six representative lots of modafinil. For comparative purposes, the standard deviation values derived from the mean, median and mode measurements are provided, as are the ratio values of median:mean:mode. Lots E-A, E-B, E-C and E-D were among the so-called early lots, and Lots L-1 and L-2 were among the so-called late lots.
# Measurements obtained using instruments and techniques developed by Hiac/Royko are preferred. A Hiac/Royco sizing counter utilizes the principle of light-extinction (obscuration) for particle size detection. The principle involved is that when a particle suspended in a liquid passes through a sensor microcell where a laser beam is directed through a window at the cell, the particles in the fluid block the laser beam from a light-extinction photodiode (photodetector) resulting in a loss of light intensity. This loss of light intensity detected by the photodetector produces an electrical pulse for each particle. These pulses are proportional in amplitude to the light intensity (light extinction) which is a measure of particle size.
# [2] = Modafinil particle size measurement, Coulter Counter TA II sizing counter; assay type: physicochemical
# Excerpt: The value ranges defined above are based upon measurements made utilizing technology and instruments developed by the Hiac/Royko Division of Pacific Scientific (11801 Tech Road, Silver Spring, Md. 20904, United States of America). As those in the art may appreciate, different instruments manufactured by different companies may provide different measurements for the same particles. For example, in a characteristic modafinil lot (Lot L-2), the mean, median, and mode particle measurements obtained using a Coulter Counter TA II sizing counter were 43, 31, and 29 microns, respectively. Using a Hiac/Royko Model 9064 sizing counter, the mean, median and mode particle measurements obtained for Lot L-2 were 18.75, 31.41 and 25.31 microns, respectively. These differences are presumably predicated upon the different approaches used in measuring particles of such diminutive sizes. Thus, the value ranges provided above are relative and are most preferably to be considered in view of utilization of instruments and operating systems manufactured by Hiac/Royko, for example, and preferably, the Hiac/Royko Model 9064 system sizing counter.
# Following this assumption, we compared various parameters from lots of the bulk drug; such comparisons had not been conducted previously, given the assumption that the modafinil being tested in the United States was the “same” as that investigated outside of the United States. Particle size distribution of the bulk drug was among the parameters examined. We have performed modafinil particle size analyses with a Hiac/Royko Model 9064 sizing counter, a Coulter Counter sizing counter, by optical microscopy and by scanning electron microscopy.
# healthy males = experiment: First United States Phase I double-blind ascending dose clinical study; assay type: in vivo; details: humans, oral, 800 mg/day dose level
# Excerpt: While significant testing of modafinil had already been conducted outside the United States, new drug candidates, such as modafinil, typically undergo clinical research in the United States in order to corroborate the information obtained in foreign studies. The first United States clinical evaluation of modafinil was a double-blind, ascending dose study involving oral administration of modafinil to healthy males (i.e., physically and mentally healthy male subjects 18 to 50 years of age; average body weight of −10% to +15% of normal weight for age, height, frame and sex; 2101).
# The planned doses for the first United States clinical trial were 200, 400, 600, 800, 1000, 1200 and 1400 mg/day of modafinil or placebo. These dose levels were based upon the safety profile observed during the foreign clinical testing of modafinil. Subsequent doses were given only when it was determined that the previously administered dose was safe and well tolerated. For example, the safety data for the 200 mg study dose was reviewed and assessed before other volunteers received the 400 mg dose.
# In this first United States Phase I clinical study, modafinil from Lot L-1 was utilized. Complete data were obtained for three of the seven modafinil dose levels intended for testing, i.e., 200, 400, and 600 mg/day. […] These symptoms resolved without treatment or sequelae following drug discontinuation. […]
# [3] = Plasma modafinil concentration in dogs after single oral dose of lots with different particle size; assay type: in vivo; details: single oral dose of 200 mg, capsule, 0 to 36 hours
# Procedure: Given the disparity in results between the foreign and United States studies using what was presumed to be “identical” modafinil, additional non-human analyses were necessary prior to continuation of human clinical trials. Accordingly, animal studies in dogs were carried out to determine the in vivo pharmacokinetics of modafinil with different average particle size diameters, roughly designated as having “small” (Lot L-1) and “large” (Lots E-B and E-D) median particle sizes. Nine male dogs were randomly assigned, according to body weight to three dose groups. Each group was given a single oral dose of 200 of mg modafinil weekly for three weeks in a randomized, cross-over design, as described in Table 2.
# After each weekly dose, blood samples (2 ml) were drawn from all animals by venepuncture predose (within one hour of dosing), and at 0.5, 1, 2, 3, 4, 6, 8, 10, 12, 18, 24, and 36 hours post-dose. Blood samples were collected in heparinized (lithium heparin) test tubes and centrifuged at 2,500 to 3,000 rpm. The plasma was drawn off with a glass pipette, and stored frozen (−20° C.) until analyzed. The plasma concentration of modafinil, and its acid and sulfone metabolites were simultaneously determined by high-pressure liquid chromatography, according to the method of Moachon et al. (J. Chromatag. B 654:91 (1994)).
# [4] = Dissolution rate of modafinil particles in deionized water (first experiment); assay type: physicochemical; details: 50 mg in 500 ml deionized water, stirred, 0-60 minutes, HPLC; L-1 compared with E-D
# Procedure: In the first experiment, 500 ml of deionized water was put in a 1-liter beaker and 50 mg of E-D or L-1 was added. The suspension was stirred constantly with a 5 cm Teflon-coated magnetic stir bar and a magnetic stir plate (Thermolyne model #546725). Samples of 1 ml each were taken at times 0, 1, 5, 10, 15, 20, 25, 30, 40, 50, and 60 minutes, with each sample being replaced with 1 ml of deionized water. The stir plate speed setting was “2” for the first 20 minutes, and “7” from 20 to 60 minutes Each sample was immediately filtered through a 0.45 μm filter, to remove undissolved particles. The filtered samples were assayed for modafinil, by high performance liquid chromatography, based upon the method of Moachon et al. (J. Chromatag. B 654:91 (1994)).
# humans = details: cited from earlier work
# normal young males = experiment: Second United States Phase I study (safety, tolerance, pharmacokinetics); assay type: in vivo, humans; details: oral, titrated in 200 mg/day increments, Lots L-1 or L-2
# Procedure: After the discrepancy between the foreign and first United States studies was resolved and determined to be related to the differences in particle sizes, a second Phase I study was conducted in the United States, to further determine the clinical safety, tolerance and pharmacokinetic properties of modafinil having a particle size as defined. The second study involved normal young males and an experimental design similar to the first United States study (described above). In the second study, all subjects began at 200 mg/day using modafinil from Lots L-1 or L-2. Dosage was then titrated, in 200 mg/day increments, up to the target dose.
# monkeys = details: single administration; cited from earlier work
# [5] = test system: patients or healthy volunteers; details: doses tested in the foreign studies; cited from earlier work
# mice = details: single administration; cited from earlier work
smiles,measurement,setting,value
"NC(=O)C[S+]([O-])C(c1ccccc1)c1ccccc1 [Lot L-2, 2-(benzhydrylsulfinyl)acetamide]",MODAFINIL PARTICLE DIAMETER MEAN,[1]; listed as L-2,18.75 +/− 1.89 μm
same,MODAFINIL PARTICLE DIAMETER MEDIAN,[1]; listed as L-2,31.41 +/− 3.57 μm
same,MODAFINIL PARTICLE DIAMETER MODE,[1]; listed as L-2,25.31 +/− 1.34 μm
same,mean particle measurement,[1]; Hiac/Royko Model 9064,18.75 microns
same,median particle measurement,[1]; Hiac/Royko Model 9064,31.41 microns
same,mode particle measurement,[1]; Hiac/Royko Model 9064,25.31 microns
same,"STD DEVIATION BETWEEN MEAN, MEDIAN, MODE",[1]; listed as L-2,6.36
same,mean particle measurement,[2],43 microns
same,median particle measurement,[2],31 microns
same,mode particle measurement,[2],29 microns
"NC(=O)C[S+]([O-])C(c1ccccc1)c1ccccc1 [Lot L-1, 2-(benzhydrylsulfinyl)acetamide]",adverse events,healthy males,elevations in heart rate and blood pressure
same,MODAFINIL PARTICLE DIAMETER MEAN,[1]; listed as L-1,21.40 +/− 2.52 μm
same,MODAFINIL PARTICLE DIAMETER MEDIAN,[1]; listed as L-1,50.18 μm and 50.18 +/− 12.57 μm
same,MODAFINIL PARTICLE DIAMETER MODE,[1]; listed as L-1,56.56 +/− 22.39 μm
same,"STD DEVIATION BETWEEN MEAN, MEDIAN, MODE",[1]; listed as L-1,18.73
same,"peak plasma modafinil concentration (mean, nine dogs)",[3]; listed as L-1,10 µg/mL
same,dissolution rate,[4],faster dissolution rate
"NC(=O)C[S+]([O-])C(c1ccccc1)c1ccccc1 (centres unmarked) [modafinil, 2-(benzhydrylsulfinyl)acetamide]",treatment of idiopathic hypersomnia and narcolepsy,humans,successfully tested
same,maximum tolerable dose (MTD),normal young males,600 mg/day
same,minimum intolerable dose,normal young males,800 mg/day
same,nocturnal activity,monkeys,increased nocturnal activity
same,hemodynamic changes in heart rate or blood pressure,[5],No statistically or clinically significant hemodynamic changes
same,locomotor activity,mice,increased locomotor activity
"NC(=O)C[S+]([O-])C(c1ccccc1)c1ccccc1 (centres unmarked) [Lot E-D, 2-(benzhydrylsulfinyl)acetamide]",MODAFINIL PARTICLE DIAMETER MEAN,[1]; listed as E-D,22.14 +/− 0.76 μm
same,MODAFINIL PARTICLE DIAMETER MEDIAN,[1]; listed as E-D,94.05 μm and 94.05 +/− 13.75 μm
same,MODAFINIL PARTICLE DIAMETER MODE,[1]; listed as E-D,158.63 +/− 63.81 μm
same,"STD DEVIATION BETWEEN MEAN, MEDIAN, MODE",[1]; listed as E-D,68.28
same,"peak plasma modafinil concentration (mean, nine dogs)",[3]; listed as E-D,8 µg/mL
"NC(=O)C[S+]([O-])C(c1ccccc1)c1ccccc1 (centres unmarked) [Lot E-C, 2-(benzhydrylsulfinyl)acetamide]",MODAFINIL PARTICLE DIAMETER MEAN,[1]; listed as E-C,28.27 +/− 4.10 μm
same,MODAFINIL PARTICLE DIAMETER MEDIAN,[1]; listed as E-C,79.00 +/− 3.78 μm
same,MODAFINIL PARTICLE DIAMETER MODE,[1]; listed as E-C,101.00 +/− 40.92 μm
same,"STD DEVIATION BETWEEN MEAN, MEDIAN, MODE",[1]; listed as E-C,37.30
"NC(=O)C[S+]([O-])C(c1ccccc1)c1ccccc1 (centres unmarked) [Lot E-A, 2-(benzhydrylsulfinyl)acetamide]",MODAFINIL PARTICLE DIAMETER MEAN,[1]; listed as E-A,34.60 +/− 5.21 μm
same,MODAFINIL PARTICLE DIAMETER MEDIAN,[1]; listed as E-A,143.65 +/− 3.26 μm
same,MODAFINIL PARTICLE DIAMETER MODE,[1]; listed as E-A,176.48 +/− 5.32 μm
same,"STD DEVIATION BETWEEN MEAN, MEDIAN, MODE",[1]; listed as E-A,74.27
"NC(=O)C[S+]([O-])C(c1ccccc1)c1ccccc1 (centres unmarked) [Lot E-B, 2-(benzhydrylsulfinyl)acetamide]",MODAFINIL PARTICLE DIAMETER MEAN,[1]; listed as E-B,29.99 +/− 1.09 μm
same,MODAFINIL PARTICLE DIAMETER MEDIAN,[1]; listed as E-B,89.10 μm and 89.10 +/− 4.28 μm
same,MODAFINIL PARTICLE DIAMETER MODE,[1]; listed as E-B,78.59 +/− 2.60 μm
same,"STD DEVIATION BETWEEN MEAN, MEDIAN, MODE",[1]; listed as E-B,31.53
same,"peak plasma modafinil concentration (mean, nine dogs)",[3]; listed as E-B,8 µg/mL
